Laboratory results published in ChEMBL document CHEMBL5550200, “Back-Pocket Optimization of 2-Aminopyrimidine-Based Macrocycles Leads to Potent EPHA2/GAK Kinase Inhibitors” (J Med Chem, 2024).

Legend:
[1] = target: Vascular endothelial growth factor receptor 1 (Homo sapiens, UniProt P17948); experiment: Induction of stabilization of recombinant FLT1 (unknown origin) assessed as change in melting temperature by differential scanning fluorimetry assay
[2] = target: Ephrin type-A receptor 7 (Homo sapiens) (UniProt Q15375); experiment: Induction of stabilization of recombinant EPHA7 (unknown origin) assessed as change in melting temperature by differential scanning fluorimetry assay
Sequence of Ephrin type-A receptor 7 (Homo sapiens) (Q15375 28-998 limits assumed): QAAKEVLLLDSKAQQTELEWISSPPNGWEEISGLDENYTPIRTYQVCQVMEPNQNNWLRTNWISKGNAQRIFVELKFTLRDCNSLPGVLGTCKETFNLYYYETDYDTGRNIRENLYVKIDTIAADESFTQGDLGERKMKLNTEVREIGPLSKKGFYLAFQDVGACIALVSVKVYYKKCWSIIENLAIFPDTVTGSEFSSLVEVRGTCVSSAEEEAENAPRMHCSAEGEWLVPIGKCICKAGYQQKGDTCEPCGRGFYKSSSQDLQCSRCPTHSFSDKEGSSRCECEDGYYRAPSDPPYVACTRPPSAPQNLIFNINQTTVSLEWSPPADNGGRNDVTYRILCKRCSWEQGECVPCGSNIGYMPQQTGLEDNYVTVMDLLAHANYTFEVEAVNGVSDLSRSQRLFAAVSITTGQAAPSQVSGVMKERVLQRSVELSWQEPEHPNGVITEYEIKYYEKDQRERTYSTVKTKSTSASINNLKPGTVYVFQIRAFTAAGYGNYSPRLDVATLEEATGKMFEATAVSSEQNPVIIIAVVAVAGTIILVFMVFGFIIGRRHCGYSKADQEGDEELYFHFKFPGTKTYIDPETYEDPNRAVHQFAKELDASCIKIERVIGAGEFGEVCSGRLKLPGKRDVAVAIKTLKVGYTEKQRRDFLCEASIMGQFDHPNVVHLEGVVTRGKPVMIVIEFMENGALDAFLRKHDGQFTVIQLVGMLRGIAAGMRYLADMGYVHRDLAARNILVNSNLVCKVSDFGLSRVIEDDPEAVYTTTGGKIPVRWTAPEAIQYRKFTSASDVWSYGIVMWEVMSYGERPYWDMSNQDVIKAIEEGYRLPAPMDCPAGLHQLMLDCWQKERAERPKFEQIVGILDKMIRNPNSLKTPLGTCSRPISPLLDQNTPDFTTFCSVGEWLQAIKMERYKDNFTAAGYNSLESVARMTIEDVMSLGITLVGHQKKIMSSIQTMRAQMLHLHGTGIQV

[3] = target: Ephrin type-A receptor 5 (Homo sapiens) (UniProt P54756)
Sequence of Ephrin type-A receptor 5 (Homo sapiens) (P54756 whole entry): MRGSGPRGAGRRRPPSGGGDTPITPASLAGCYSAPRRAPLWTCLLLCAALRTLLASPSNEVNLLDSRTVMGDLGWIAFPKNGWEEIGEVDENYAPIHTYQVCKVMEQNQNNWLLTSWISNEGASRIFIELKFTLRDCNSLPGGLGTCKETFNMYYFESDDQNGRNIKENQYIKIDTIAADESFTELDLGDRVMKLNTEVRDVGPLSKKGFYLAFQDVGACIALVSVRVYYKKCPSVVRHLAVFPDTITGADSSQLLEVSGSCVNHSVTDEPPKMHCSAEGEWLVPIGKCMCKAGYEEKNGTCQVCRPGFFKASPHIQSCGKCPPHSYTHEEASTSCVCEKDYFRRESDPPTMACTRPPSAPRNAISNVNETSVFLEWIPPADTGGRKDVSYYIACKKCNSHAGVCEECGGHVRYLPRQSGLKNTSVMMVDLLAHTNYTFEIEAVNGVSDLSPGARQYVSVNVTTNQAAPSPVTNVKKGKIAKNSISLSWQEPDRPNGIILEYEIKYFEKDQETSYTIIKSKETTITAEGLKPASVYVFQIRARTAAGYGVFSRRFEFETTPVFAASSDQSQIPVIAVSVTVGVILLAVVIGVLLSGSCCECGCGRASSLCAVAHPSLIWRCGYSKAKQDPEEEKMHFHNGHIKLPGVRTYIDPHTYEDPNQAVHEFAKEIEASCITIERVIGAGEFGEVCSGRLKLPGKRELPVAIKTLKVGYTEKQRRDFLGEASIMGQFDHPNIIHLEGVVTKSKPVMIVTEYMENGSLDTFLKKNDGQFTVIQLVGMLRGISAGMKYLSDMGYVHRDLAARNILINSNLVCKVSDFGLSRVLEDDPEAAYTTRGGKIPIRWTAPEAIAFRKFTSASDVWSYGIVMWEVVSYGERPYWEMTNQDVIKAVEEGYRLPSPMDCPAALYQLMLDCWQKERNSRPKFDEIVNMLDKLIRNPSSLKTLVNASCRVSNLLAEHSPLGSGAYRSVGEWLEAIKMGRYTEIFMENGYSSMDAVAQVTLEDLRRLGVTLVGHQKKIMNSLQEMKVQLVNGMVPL
Description: Induction of stabilization of recombinant EPHA5 (unknown origin) assessed as change in melting temperature by differential scanning fluorimetry assay

[4] = target: Fibroblast growth factor receptor 1 (Homo sapiens, UniProt P11362)
Sequence of Fibroblast growth factor receptor 1 (P11362 22-822 limits assumed): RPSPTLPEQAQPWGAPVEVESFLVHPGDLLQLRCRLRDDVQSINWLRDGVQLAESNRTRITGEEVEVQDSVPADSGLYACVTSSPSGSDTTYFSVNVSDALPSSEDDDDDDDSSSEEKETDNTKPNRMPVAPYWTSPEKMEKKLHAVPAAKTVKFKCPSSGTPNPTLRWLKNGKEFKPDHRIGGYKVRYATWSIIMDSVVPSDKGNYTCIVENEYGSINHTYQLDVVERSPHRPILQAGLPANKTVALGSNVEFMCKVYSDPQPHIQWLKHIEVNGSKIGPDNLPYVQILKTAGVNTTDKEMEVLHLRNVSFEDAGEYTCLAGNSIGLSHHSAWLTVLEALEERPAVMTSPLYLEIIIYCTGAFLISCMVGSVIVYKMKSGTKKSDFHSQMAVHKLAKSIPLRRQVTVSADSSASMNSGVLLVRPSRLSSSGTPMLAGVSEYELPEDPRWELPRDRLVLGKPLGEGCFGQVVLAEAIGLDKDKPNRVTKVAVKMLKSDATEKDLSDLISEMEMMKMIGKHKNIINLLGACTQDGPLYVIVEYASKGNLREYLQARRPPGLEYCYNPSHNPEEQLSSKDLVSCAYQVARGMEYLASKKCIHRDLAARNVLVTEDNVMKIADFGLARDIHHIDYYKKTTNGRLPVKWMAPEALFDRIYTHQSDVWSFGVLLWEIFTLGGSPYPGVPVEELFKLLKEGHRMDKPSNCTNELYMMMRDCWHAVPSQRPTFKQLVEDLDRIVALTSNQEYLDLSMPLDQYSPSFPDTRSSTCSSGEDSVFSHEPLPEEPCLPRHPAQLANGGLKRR
Description: Induction of stabilization of recombinant FGFR1 (unknown origin) assessed as change in melting temperature by differential scanning fluorimetry assay

[5] = target: Ephrin type-A receptor 2 (Homo sapiens, UniProt P29317)
Description: Induction of stabilization of recombinant EPHA2 (D596 to G900 residues) (unknown origin) expressed in Escherichia coli rosetta BL21(D3)-R3-pRARE2 competent cells assessed as change in melting temperature by differential scanning fluorimetry assay

[6] = target: T1, Cyclin-G-associated kinase (Homo sapiens) (UniProt O14976)
T1 sequence (whole entry): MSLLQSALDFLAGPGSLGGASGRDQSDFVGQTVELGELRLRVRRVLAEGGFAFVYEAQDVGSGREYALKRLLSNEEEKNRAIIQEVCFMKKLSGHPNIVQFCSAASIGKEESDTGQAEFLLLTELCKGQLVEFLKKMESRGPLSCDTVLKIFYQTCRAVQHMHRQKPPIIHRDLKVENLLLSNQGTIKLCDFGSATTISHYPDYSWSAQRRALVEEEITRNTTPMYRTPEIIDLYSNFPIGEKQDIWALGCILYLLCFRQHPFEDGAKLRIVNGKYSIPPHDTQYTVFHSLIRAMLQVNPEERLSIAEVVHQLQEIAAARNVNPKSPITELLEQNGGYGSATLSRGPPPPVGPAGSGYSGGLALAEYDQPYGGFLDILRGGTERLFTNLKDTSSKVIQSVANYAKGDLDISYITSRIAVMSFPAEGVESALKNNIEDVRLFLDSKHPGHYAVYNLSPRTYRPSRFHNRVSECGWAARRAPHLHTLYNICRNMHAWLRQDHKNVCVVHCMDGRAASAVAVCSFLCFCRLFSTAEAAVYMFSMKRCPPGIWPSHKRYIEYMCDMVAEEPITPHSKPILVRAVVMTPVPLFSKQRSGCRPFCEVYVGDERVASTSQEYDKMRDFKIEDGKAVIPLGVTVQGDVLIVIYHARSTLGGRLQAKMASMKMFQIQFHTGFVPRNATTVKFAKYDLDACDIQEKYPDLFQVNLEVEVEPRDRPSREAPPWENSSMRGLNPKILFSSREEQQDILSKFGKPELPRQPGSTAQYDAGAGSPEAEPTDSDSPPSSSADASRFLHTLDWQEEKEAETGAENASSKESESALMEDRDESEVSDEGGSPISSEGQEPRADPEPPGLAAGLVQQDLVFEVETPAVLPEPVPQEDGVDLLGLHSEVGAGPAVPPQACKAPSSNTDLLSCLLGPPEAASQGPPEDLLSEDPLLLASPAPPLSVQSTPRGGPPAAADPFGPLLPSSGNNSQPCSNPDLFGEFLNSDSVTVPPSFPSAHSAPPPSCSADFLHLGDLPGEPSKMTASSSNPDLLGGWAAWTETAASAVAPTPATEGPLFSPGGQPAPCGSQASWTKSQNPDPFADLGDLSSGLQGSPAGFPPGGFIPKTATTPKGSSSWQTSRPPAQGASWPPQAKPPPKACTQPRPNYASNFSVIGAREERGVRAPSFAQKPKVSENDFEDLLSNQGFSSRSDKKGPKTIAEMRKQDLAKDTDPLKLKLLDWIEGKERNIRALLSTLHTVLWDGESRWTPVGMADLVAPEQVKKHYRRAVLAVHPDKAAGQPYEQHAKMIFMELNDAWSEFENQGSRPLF
Description: Induction of stabilization of recombinant GAK (unknown origin) assessed as change in melting temperature by differential scanning fluorimetry assay

[7] = target: Ephrin type-A receptor 4 (Homo sapiens, UniProt P54764); experiment: Induction of stabilization of recombinant EPHA4 (unknown origin) assessed as change in melting temperature by differential scanning fluorimetry assay
[8] = target: Fibroblast growth factor receptor 2 (Homo sapiens) (UniProt P21802)
Sequence of Fibroblast growth factor receptor 2 (Homo sapiens) (P21802 22-821 limits assumed): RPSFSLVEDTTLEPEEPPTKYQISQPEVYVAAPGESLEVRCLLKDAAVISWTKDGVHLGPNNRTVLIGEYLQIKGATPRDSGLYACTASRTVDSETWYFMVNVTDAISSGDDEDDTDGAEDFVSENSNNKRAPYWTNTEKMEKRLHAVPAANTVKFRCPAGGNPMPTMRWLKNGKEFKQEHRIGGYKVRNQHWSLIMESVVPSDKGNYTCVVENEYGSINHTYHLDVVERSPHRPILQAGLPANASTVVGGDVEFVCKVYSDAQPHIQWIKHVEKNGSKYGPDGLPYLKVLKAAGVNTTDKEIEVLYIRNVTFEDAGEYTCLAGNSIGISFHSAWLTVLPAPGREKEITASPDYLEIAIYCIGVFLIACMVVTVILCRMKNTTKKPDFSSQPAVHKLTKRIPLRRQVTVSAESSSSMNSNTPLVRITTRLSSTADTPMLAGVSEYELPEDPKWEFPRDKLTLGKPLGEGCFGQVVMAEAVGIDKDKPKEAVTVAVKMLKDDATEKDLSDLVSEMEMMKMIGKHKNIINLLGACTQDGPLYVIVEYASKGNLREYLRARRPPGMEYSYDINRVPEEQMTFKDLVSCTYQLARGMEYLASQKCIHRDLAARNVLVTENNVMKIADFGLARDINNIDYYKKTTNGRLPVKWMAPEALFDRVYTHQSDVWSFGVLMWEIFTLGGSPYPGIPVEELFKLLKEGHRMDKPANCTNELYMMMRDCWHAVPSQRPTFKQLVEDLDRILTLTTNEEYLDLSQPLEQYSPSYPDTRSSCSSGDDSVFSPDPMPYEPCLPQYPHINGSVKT
Description: Induction of stabilization of recombinant FGFR2 (unknown origin) assessed as change in melting temperature by differential scanning fluorimetry assay

Sequence of Vascular endothelial growth factor receptor 1 (P17948 whole entry): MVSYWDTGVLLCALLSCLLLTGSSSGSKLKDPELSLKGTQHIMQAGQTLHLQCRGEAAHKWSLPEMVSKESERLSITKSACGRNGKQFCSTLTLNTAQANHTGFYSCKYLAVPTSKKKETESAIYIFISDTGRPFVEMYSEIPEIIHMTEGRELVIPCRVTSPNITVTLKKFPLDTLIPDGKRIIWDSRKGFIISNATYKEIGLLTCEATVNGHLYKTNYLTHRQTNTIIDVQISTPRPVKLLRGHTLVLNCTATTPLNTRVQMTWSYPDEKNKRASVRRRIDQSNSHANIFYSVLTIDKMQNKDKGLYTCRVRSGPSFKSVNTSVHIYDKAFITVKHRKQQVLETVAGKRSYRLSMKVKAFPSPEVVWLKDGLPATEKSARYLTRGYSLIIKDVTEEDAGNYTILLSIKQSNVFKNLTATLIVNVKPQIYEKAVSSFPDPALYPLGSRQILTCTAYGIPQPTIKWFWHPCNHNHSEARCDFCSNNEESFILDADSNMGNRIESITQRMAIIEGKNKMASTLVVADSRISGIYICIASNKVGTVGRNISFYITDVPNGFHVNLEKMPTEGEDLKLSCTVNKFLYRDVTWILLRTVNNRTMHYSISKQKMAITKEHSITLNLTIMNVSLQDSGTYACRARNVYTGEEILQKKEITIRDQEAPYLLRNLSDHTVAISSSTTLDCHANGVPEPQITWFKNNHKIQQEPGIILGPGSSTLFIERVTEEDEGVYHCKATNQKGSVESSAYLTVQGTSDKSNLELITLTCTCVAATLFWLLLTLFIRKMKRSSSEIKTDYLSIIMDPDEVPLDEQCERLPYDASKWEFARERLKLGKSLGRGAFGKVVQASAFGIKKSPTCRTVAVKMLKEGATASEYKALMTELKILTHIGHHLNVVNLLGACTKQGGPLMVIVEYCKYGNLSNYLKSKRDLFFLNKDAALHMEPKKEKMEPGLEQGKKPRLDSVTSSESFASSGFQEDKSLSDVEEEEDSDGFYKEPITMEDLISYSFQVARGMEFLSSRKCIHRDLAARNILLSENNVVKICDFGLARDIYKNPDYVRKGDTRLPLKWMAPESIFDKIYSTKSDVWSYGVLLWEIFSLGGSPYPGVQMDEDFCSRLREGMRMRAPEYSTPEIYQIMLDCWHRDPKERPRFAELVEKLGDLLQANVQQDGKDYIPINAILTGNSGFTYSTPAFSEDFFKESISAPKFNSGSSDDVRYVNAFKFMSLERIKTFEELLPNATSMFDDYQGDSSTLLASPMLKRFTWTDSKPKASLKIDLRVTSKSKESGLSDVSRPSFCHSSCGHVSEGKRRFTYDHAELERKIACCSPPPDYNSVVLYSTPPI

Row | SMILES | deltaTm [1] [K] | deltaTm [2] [K] | deltaTm [3] [K] | deltaTm [4] [K] | deltaTm [5] [K] | deltaTm [6] [K] | deltaTm [7] [K] | deltaTm [8] [K]
1 | COc1c(F)ccc(-c2cnc3nc2NCCCNS(=O)(=O)c2cccc(c2)N3)c1F | 8.8 | -2.5 | 5.4 | 5.2 | 8.8 | 6.8 | 4.9 | 5.8
2 | COc1cc(-c2cnc3nc2NCCCNS(=O)(=O)c2cccc(c2)N3)c(F)cc1F | 3.4 | 0.4 | 5 | 2.7 | 6.9 | 7.3 | 2.8 | 3.6
3 | COc1cc(-c2cnc3nc2NCCCNS(=O)(=O)c2cc(ccc2O)N3)ccc1F | 3 | 0.3 | 4.7 | 1.9 | 7.9 | 8 | 3.3 | 3
4 | O=S1(=O)NCCCNc2nc(ncc2-c2ccc(Cl)c(Cl)c2)Nc2cccc1c2 | 3.6 | 2.4 | 3.4 | 2.8 | 6.2 | 3.6 | 2.9 | 3.9
